In patent US4391816A, “N-(Naphthalenylthioxomethyl)aminoacid derivatives” (Ayerst, McKenna & Harrison Inc., priority 1981, dated 1983):

Legend:
aldose reductase [1] = conditions: reported in the literature; cited from earlier work
aldose reductase [2] = biological target: T1, aldose reductase (Bos taurus, UniProt P16116); assay: in vitro aldose reductase inhibition (enzyme from bovine lens, modified Hayman and Kinoshita procedure); type: biochemical; conditions: for inhibition at 10 µM: 10^-5 molar, read-out: % Inhibition at Different Molar Concentrations (in vitro), 10^-5; for inhibition at 1 µM: 10^-6 molar, read-out: % Inhibition at Different Molar Concentrations (in vitro), 10^-6; for inhibition at 0.1 µM: 10^-7 molar, read-out: % Inhibition at Different Molar Concentrations (in vitro), 10^-7
T1 construct: preparation of the enzyme from bovine lens; from tissue; host or cells: bovine lens
Protocol: In the present case the procedure of Hayman and Kinoshita is modified in that the final chromatography step is omitted in the preparation of the enzyme from bovine lens.
The following results were obtained when the compounds of this invention were evaluated in the above in vitro test.

SMILES | inhibition at 10 µM (aldose reductase [2]) | inhibition at 1 µM (aldose reductase [2]) | inhibition at 0.1 µM (aldose reductase [2]) | inhibition of aldose reductase (in words) (aldose reductase [1])
O=C(O)CN1C(=O)c2cccc3cccc(c23)C1=O [1,3-Dioxo-1H-benz[de]isoquinoline-2(3H)-acetic acid] | – | – | – | effective inhibitor of aldose reductase
COc1c(Cl)cc(C(=S)N(C)CC(=O)O)c2cccc(S(=O)(=O)N(C)C)c12 [N-[[3-chloro-4-methoxy-5-(dimethylaminosulfonyl)-1-naphthalenyl]thioxomethyl]-N-methylglycine] | 91% | 67% | 19% | –
COc1ccc(C(=S)N(C)CC(=O)O)c2cccc(S(=O)(=O)N(C)C)c12 [N-[[4-methoxy-5-(dimethylaminosulfonyl)-1-naphthalenyl]thioxomethyl]-N-methylglycine] | 80% | 35% | 6% | –
O=C(O)CN(C(=S)c1cccc2c(Br)cccc12)c1ccc(Cl)cc1 [R^1=4-Cl--C6 H4, R^2=H, R^3=5-Br, n=O, N-[(5-bromo-1-naphthalenyl)thioxomethyl]-N-(4-chlorophenyl)glycine] | 86% | 80% | 39% | –
CC(C(=O)O)N(C)C(=S)c1cccc2c(Br)cccc12 (centres unmarked) [R^1=CH3, R^2=CH3, R^3=5-Br, n=O *] | 18% | – | – | –
O=C1NC(=O)[C@@]2(CCOc3ccc(F)cc32)N1 [sorbinil, (S)-6-Fluoro-2,3-dihydrospiro(4H-1-benzopyran-4,4'-imidazolidine)-2',5'-dione] | – | – | – | aldose reductase inhibiting properties

The next lines start with results.

inhibition at 10 µM (aldose reductase [2]) | inhibition at 1 µM (aldose reductase [2]) | inhibition at 0.1 µM (aldose reductase [2]) | SMILES | inhibition of aldose reductase (in words) (aldose reductase [1])
56% | 26% | – | O=C(O)[C@@H]1CCCN1C(=S)c1cccc2c(Br)cccc12 [R^1 R^2=CH2 CH2 CH2, R^3=5-Br, n=O, N-[(5-bromo-1-naphthalenyl)thioxomethyl]-L-proline] | –
46% | 7% | – | O=C(O)CN(CC(=O)O)C(=S)c1cccc2c(Br)cccc12 [R^1=CH2 COOH, R^2=H, R^3=5-Br, n=O, N-[(5-bromo-1-naphthalenyl)thioxomethyl]-N-(carboxymethyl)glycine] | –
90% | 74% | 28% | CN(CC(=O)O)C(=S)c1cc(Br)cc2ccccc12 [R^1=CH3, R^2=H, R^3=3-Br, n=O, N-[(3-Bromo-1-naphthalenyl)thioxomethyl]-N-methylglycine] | –
37% | – | – | CN(CCCC(=O)O)C(=S)c1cccc2c(Br)cccc12 [R^1=CH3, R^2=H, R^3=5-Br, n=2, N-[(5-bromo-1-naphthalenyl)thioxomethyl]-N-methyl-4-aminobutanoic acid] | –
91% | 75% | 18% | CN(CC(=O)O)C(=S)c1cccc2cc(Br)ccc12 [R^1=CH3, R^2=H, R^3=6-Br, n=O, N-[(6-bromo-1-naphthalenyl)thioxomethyl)-N-methylglycine] | –
86% | 58% | 15% | CN(CC(=O)O)C(=S)c1cccc2ccc(Br)cc12 [R^1=CH3, R^2=H, R^3=7-Br, n=O, N-[(7-bromo-1-naphthalenyl)thioxomethyl]-N-methylglycine] | –
